Measurements taken from ChEMBL document CHEMBL5113392, “Novel hybrid pyrrolidinedione-thiazolidinones as potential anticancer agents: Synthesis and biological evaluation” (Eur J Med Chem, 2022).

Experiments:
HL-60 = assay: Anticancer activity against human HL-60 cells assessed as growth inhibition incubated for 48 hrs by SRB assay; format: functional
K562 = assay: Anticancer activity against human K562 cells assessed as growth inhibition incubated for 48 hrs by SRB assay; format: functional
MOLT-4 = assay: Anticancer activity against human MOLT-4 cells assessed as growth inhibition incubated for 48 hrs by SRB assay; format: functional
HOP-62 [1] = assay: Anticancer activity against human HOP-62 cells assessed as growth inhibition incubated for 48 hrs by SRB assay; format: functional
NCI-H460 = assay: Anticancer activity against human NCI-H460 cells assessed as growth inhibition incubated for 48 hrs by SRB assay; format: functional
SF-295 [2] = assay: Anticancer activity against human SF-295 cells assessed as growth inhibition incubated for 48 hrs by SRB assay; format: functional
M14 [3] = assay: Anticancer activity against human M14 cells assessed as growth inhibition incubated for 48 hrs by SRB assay; format: functional
SK-MEL-2 = assay: Anticancer activity against human SK-MEL-2 cells assessed as growth inhibition incubated for 48 hrs by SRB assay; format: functional
SK-MEL-5 = assay: Anticancer activity against human SK-MEL-5 cells assessed as growth inhibition incubated for 48 hrs by SRB assay; format: functional
UACC-257 = assay: Anticancer activity against human UACC-257 cells assessed as growth inhibition incubated for 48 hrs by SRB assay; format: functional
UACC-62 [4] = assay: Anticancer activity against human UACC-62 cells assessed as growth inhibition incubated for 48 hrs by SRB assay; format: functional
IGROV-1 [5] = assay: Anticancer activity against human IGROV-1 cells assessed as growth inhibition incubated for 48 hrs by SRB assay; format: functional
SK-OV-3 = assay: Anticancer activity against human SK-OV-3 cells assessed as growth inhibition incubated for 48 hrs by SRB assay; format: functional
ACHN = assay: Anticancer activity against human ACHN cells assessed as growth inhibition incubated for 48 hrs by SRB assay; format: functional
MCF7 [6] = assay: Anticancer activity against human MCF7 cells assessed as growth inhibition incubated for 48 hrs by SRB assay; format: functional
Hs-578T = assay: Anticancer activity against human Hs-578T cells assessed as growth inhibition incubated for 48 hrs by SRB assay; format: functional
[7] = Selectivity index, ratio of GI50 for human HaCaT cells to GI50 for human U-251 cells; format: toxicity; details: HaCaT cells versus U-251 cells, read-out: RatioGI50
RPMI-8226 = assay: Anticancer activity against human RPMI-8226 cells assessed as total growth inhibition incubated for 48 hrs by SRB assay; format: functional
EKVX = assay: Anticancer activity against human EKVX cells assessed as total growth inhibition incubated for 48 hrs by SRB assay; format: functional
HOP-62 [8] = assay: Anticancer activity against human HOP-62 cells assessed as total growth inhibition incubated for 48 hrs by SRB assay; format: functional
NCI-H226 = assay: Anticancer activity against human NCI-H226 cells assessed as total growth inhibition incubated for 48 hrs by SRB assay; format: functional
NCI-H23 = assay: Anticancer activity against human NCI-H23 cells assessed as total growth inhibition incubated for 48 hrs by SRB assay; format: functional
SF-268 [9] = assay: Anticancer activity against human SF-268 cells assessed as total growth inhibition incubated for 48 hrs by SRB assay; format: functional
SF-295 [10] = assay: Anticancer activity against human SF-295 cells assessed as total growth inhibition incubated for 48 hrs by SRB assay; format: functional
U-251 [11] = assay: Anticancer activity against human U-251 cells assessed as total growth inhibition incubated for 48 hrs by SRB assay; format: functional
SK-MEL-28 = assay: Anticancer activity against human SK-MEL-28 cells assessed as total growth inhibition incubated for 48 hrs by SRB assay; format: functional
UACC-62 [12] = assay: Anticancer activity against human UACC-62 cells assessed as total growth inhibition incubated for 48 hrs by SRB assay; format: functional
IGROV-1 [13] = assay: Anticancer activity against human IGROV-1 cells assessed as total growth inhibition incubated for 48 hrs by SRB assay; format: functional
OVCAR-4 = assay: Anticancer activity against human OVCAR-4 cells assessed as total growth inhibition incubated for 48 hrs by SRB assay; format: functional
OVCAR-8 = assay: Anticancer activity against human OVCAR-8 cells assessed as total growth inhibition incubated for 48 hrs by SRB assay; format: functional
NCI/ADR-RES = assay: Anticancer activity against human NCI/ADR-RES cells assessed as total growth inhibition incubated for 48 hrs by SRB assay; format: functional
UO-31 = assay: Anticancer activity against human UO-31 cells assessed as total growth inhibition incubated for 48 hrs by SRB assay; format: functional
MDA-MB-231 = assay: Anticancer activity against human MDA-MB-231 cells assessed as total growth inhibition incubated for 48 hrs by SRB assay; format: functional
T47D = assay: Anticancer activity against human T47D cells assessed as total growth inhibition incubated for 48 hrs by SRB assay; format: functional
HCT-15 = assay: Anticancer activity against human HCT-15 cells assessed as lethality incubated for 48 hrs by SRB assay; format: functional; details: read-out: LC50 (the source's name)
HT-29 = assay: Anticancer activity against human HT-29 cells assessed as lethality incubated for 48 hrs by SRB assay; format: functional; details: read-out: LC50 (the source's name)
SF-268 [14] = assay: Anticancer activity against human SF-268 cells assessed as lethality incubated for 48 hrs by SRB assay; format: functional; details: read-out: LC50 (the source's name)
U-251 [15] = assay: Anticancer activity against human U-251 cells assessed as lethality incubated for 48 hrs by SRB assay; format: functional; details: read-out: LC50 (the source's name)
M14 [16] = assay: Anticancer activity against human M14 cells assessed as lethality incubated for 48 hrs by SRB assay; format: functional; details: read-out: LC50 (the source's name)
MCF7 [17] = assay: Anticancer activity against human MCF7 cells assessed as lethality incubated for 48 hrs by SRB assay; format: functional; details: read-out: LC50 (the source's name)
BT-549 = assay: Anticancer activity against human BT-549 cells assessed as lethality incubated for 48 hrs by SRB assay; format: functional; details: read-out: LC50 (the source's name)
MDA-MB-468 = assay: Anticancer activity against human MDA-MB-468 cells assessed as lethality incubated for 48 hrs by SRB assay; format: functional; details: read-out: LC50 (the source's name)
Jurkat = assay: Anticancer activity against human Jurkat cells assessed as cell growth inhibition incubated for 72 hrs by MTT assay; format: functional
KB 3-1 = assay: Anticancer activity against human KB 3-1 cells assessed as cell growth inhibition incubated for 72 hrs by MTT assay; format: functional
HeLa = assay: Anticancer activity against human HeLa cells assessed as cell growth inhibition incubated for 72 hrs by MTT assay; format: functional
U-251 [18] = assay: Anticancer activity against human U-251 cells assessed as cell growth inhibition incubated for 72 hrs by MTT assay; format: functional
[19] = Selectivity index, ratio of GI50 for human HaCaT cells to GI50 for human SK-OV-3 cells; format: toxicity; details: HaCaT cells versus SK-OV-3 cells, read-out: RatioGI50
[20] = Cytotoxicity against mitogen activated human peripheral blood lymphocytes assessed as cell growth inhibition incubated for 48 hrs by MTT assay; format: toxicity, cell-based, Lymphocyte
LOX IMVI = assay: Anticancer activity against human LOX IMVI cells assessed as inhibition of cell growth at 10 uM incubated for 48 hrs by SRB assay; values are per cent of control

**Q.** Which GI50 (HL-60) does the source give for `O=C1CC(N2C(=O)/C(=C/C(Cl)=C/c3ccc([N+](=O)[O-])cc3)SC2=S)C(=O)N1c1ccc(O)cc1` (centres undefined) here?
**A.** Its GI50 is 2.44 µM.

**Q.** What about the GI50 (K562) of the same compound?
**A.** The GI50 was 0.603 µM.

**Q.** What about the GI50 (MOLT-4) of the same compound?
**A.** Its GI50 is 0.534 µM.

**Q.** And the GI50 (HOP-62 [1])?
**A.** Its GI50 is 2.26 µM.

**Q.** What about the GI50 (NCI-H460) of the same compound?
**A.** The GI50 was 2.55 µM.

**Q.** What about the GI50 (SF-295 [2]) of the same compound?
**A.** The GI50 was 1.31 µM.

**Q.** What about the GI50 (M14 [3]) of the same compound?
**A.** The GI50 was 1.46 µM.

**Q.** And the GI50 (SK-MEL-2)?
**A.** Its GI50 is 2.74 µM.

**Q.** And the GI50 (SK-MEL-5)?
**A.** Its GI50 is 1.92 µM.

**Q.** What about the GI50 (UACC-257) of the same compound?
**A.** Its GI50 is 2.48 µM.

**Q.** And the GI50 (UACC-62 [4])?
**A.** Its GI50 is 1.67 µM.

**Q.** And the GI50 (IGROV-1 [5])?
**A.** The GI50 was 1.2 µM.

**Q.** And the GI50 (SK-OV-3)?
**A.** Its GI50 is 2.99 µM.

**Q.** And the GI50 (ACHN)?
**A.** Its GI50 is 1.36 µM.

**Q.** And the GI50 (MCF7 [6])?
**A.** The GI50 was 1.21 µM.

**Q.** What about the GI50 (Hs-578T) of the same compound?
**A.** The GI50 was 2.8 µM.

**Q.** What about the selectivity ratio [7] of the same compound?
**A.** Its selectivity ratio is 66.9.

**Q.** And the TGI (RPMI-8226)?
**A.** Its TGI is 4.36 µM.

**Q.** What about the TGI (EKVX) of the same compound?
**A.** Its TGI is 11.7 µM.

**Q.** And the TGI (HOP-62 [8])?
**A.** The TGI was 6.63 µM.

**Q.** And the TGI (NCI-H226)?
**A.** The TGI was 6.82 µM.

**Q.** What about the TGI (NCI-H23) of the same compound?
**A.** Its TGI is 3.52 µM.

**Q.** What about the TGI (SF-268 [9]) of the same compound?
**A.** Its TGI is 6.99 µM.

**Q.** And the TGI (SF-295 [10])?
**A.** The TGI was 2.7 µM.

**Q.** What about the TGI (U-251 [11]) of the same compound?
**A.** The TGI was 2.21 µM.

**Q.** What about the TGI (SK-MEL-28) of the same compound?
**A.** The TGI was 4.2 µM.

**Q.** And the TGI (UACC-62 [12])?
**A.** Its TGI is 3.38 µM.

**Q.** And the TGI (IGROV-1 [13])?
**A.** The TGI was 2.68 µM.

**Q.** What about the TGI (OVCAR-4) of the same compound?
**A.** Its TGI is 17.3 µM.

**Q.** What about the TGI (OVCAR-8) of the same compound?
**A.** Its TGI is 14.2 µM.

**Q.** And the TGI (NCI/ADR-RES)?
**A.** The TGI was 12.1 µM.

**Q.** What about the TGI (UO-31) of the same compound?
**A.** Its TGI is 2.79 µM.

**Q.** What about the TGI (MDA-MB-231) of the same compound?
**A.** The TGI was 5.06 µM.

**Q.** And the TGI (T47D)?
**A.** Its TGI is 15.8 µM.

**Q.** And the CC50 (HCT-15)?
**A.** Its CC50 is 6.09 µM.

**Q.** What about the CC50 (HT-29) of the same compound?
**A.** The CC50 was greater than 100 µM.

**Q.** What about the CC50 (SF-268 [14]) of the same compound?
**A.** Its CC50 is 47.1 µM.

**Q.** What about the CC50 (U-251 [15]) of the same compound?
**A.** Its CC50 is 6.53 µM.

**Q.** What about the CC50 (M14 [16]) of the same compound?
**A.** Its CC50 is 7.51 µM.

**Q.** And the CC50 (MCF7 [17])?
**A.** The CC50 was greater than 100 µM.

**Q.** What about the CC50 (BT-549) of the same compound?
**A.** Its CC50 is 8.72 µM.

**Q.** What about the CC50 (MDA-MB-468) of the same compound?
**A.** The CC50 was greater than 100 µM.

**Q.** And the GI50 (Jurkat)?
**A.** Its GI50 is 1.3 µM.

**Q.** What about the GI50 (KB 3-1) of the same compound?
**A.** Its GI50 is 8 µM.

**Q.** And the GI50 (HeLa)?
**A.** The GI50 was 6.13 µM.

**Q.** And the GI50 (U-251 [18])?
**A.** The GI50 was 1.1 µM.

**Q.** And the selectivity ratio [19]?
**A.** The selectivity ratio was 0.74.

**Q.** And the GI50 at 48 h [20]?
**A.** Its GI50 at 48 h is 51.2 µM.

**Q.** And the growth percent at 10 µM (LOX IMVI)?
**A.** The growth percent at 10 µM was -83.7%.
